Columns and labels:
Assay in all cases: relative viability vs DMSO control (72 h) (fraction); higher = more viable cells
SW982 = tested on: SW982
Method in brief: (§1)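 Sarcoma cell lines were seeded in 384-well plates at densities chosen for 80–90% confluence, then 24 h later given 2.5 µl of serially diluted compound drawn from source plates spanning 10 mM to 0.0002 mM. They were held 72 h at 37 °C, 5% CO2, with 0.1% DMSO vehicle and a 5 µM positive control included. Relative viability was read with ATPLite as percent growth and averaged over up to triplicate wells. Rescaling placed full at 1 and none at 0.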

SK-ES-1 = tested on: SK-ES-1
Method in brief: as §1

RD = tested on: RD
Method in brief: as §1

KHOS-240S = tested on: KHOS-240S
Method in brief: as §1

RD-ES = tested on: RD-ES
Method in brief: as §1

COC(=O)N[C@@H](C)CNc1nccc(-c2cn(C(C)C)nc2-c2cc(Cl)cc(NS(C)(=O)=O)c2F)n1 [Encorafenib]
relative viability
Conditions	KHOS-240S	RD	RD-ES	SK-ES-1	SW982
0.00017 µM	0.998	0.963	0.93	0.928	0.94
0.00051 µM	0.986	1.01	0.95	0.948	0.946
0.00152 µM	1.01	1.015	0.973	0.972	0.887
0.00457 µM	0.993	1	0.956	0.979	0.877
0.01372 µM	0.964	1.01	0.935	0.956	0.853
0.04115 µM	0.981	1.01	0.94	1.02	0.828
0.1235 µM	0.991	1.01	0.905	0.982	0.798
0.3704 µM	0.97	0.978	0.91	0.813	0.704
1.111 µM	0.904	0.807	0.707	0.5375	0.489
3.333 µM	0.788	0.447	0.462	0.308	0.327
10 µM	0.732	0.45	0.565	0.394	0.308

O=c1sn(-c2cccc3ccccc23)c(=O)n1Cc1ccccc1 [Tideglusib]
relative viability
Conditions	KHOS-240S	RD	RD-ES	SK-ES-1	SW982
0.00017 µM	1.05	1.08	1.01	1.03	1.07
0.00051 µM	1.07	1.12	1.03	1.06	1.09
0.00152 µM	1.09	1.13	1.02	1.09	1.08
0.00457 µM	1.07	1.12	1.02	1.12	1.11
0.01372 µM	1.08	1.14	1.02	1.083	1.11
0.04115 µM	1.07	1.13	1.01	1.08	1.11
0.1235 µM	1.07	1.11	1.03	1.05	1.1
0.3704 µM	1.06	1.1	1.01	1.03	1.09
1.111 µM	1.03	1.1	1.01	1.03	1.068
3.333 µM	1.01	1.12	1	0.977	1.08
10 µM	0.993	1.12	0.992	0.923	1.05

N#CCNC(=O)c1ccc(-c2ccnc(Nc3ccc(N4CCOCC4)cc3)n2)cc1 [Momelotinib]
relative viability
Conditions	KHOS-240S	RD	RD-ES	SK-ES-1	SW982
0.00017 µM	1.05	0.971	0.9849	1.06	0.986
0.00051 µM	1.03	0.998	0.981	1.05	1.02
0.00152 µM	1.08	0.987	0.9765	1.01	1.025
0.00457 µM	1.05	1.03	0.965	1.01	1.02
0.01372 µM	1.08	0.995	0.976	0.978	0.983
0.04115 µM	1.03	1.02	0.954	0.953	1
0.1235 µM	0.992	1.041	0.955	0.914	0.987
0.3704 µM	0.92	1.04	0.896	0.781	0.841
1.111 µM	0.789	1.02	0.818	0.575	0.604
3.333 µM	0.768	0.994	0.84	0.516	0.548
10 µM	0.725	0.905	0.797	0.332	0.436

C[C@H](Nc1ncnc2nc[nH]c12)c1cc2cccc(Cl)c2c(=O)n1-c1ccccc1 [Duvelisib]
relative viability
Conditions	KHOS-240S	RD	RD-ES	SK-ES-1	SW982
0.00017 µM	1.05	1.08	0.991	1.09	1.04
0.00051 µM	1.11	1.1	1.01	1.07	1.08
0.00152 µM	1.08	1.13	1.04	1.06	1.09
0.00457 µM	1.09	1.11	1.04	1.05	1.06
0.01372 µM	1.06	1.12	1.02	1.02	1.08
0.04115 µM	1.04	1.11	0.996	0.968	1.04
0.1235 µM	1.05	1.08	0.956	0.99	1
0.3704 µM	1.02	1.07	0.932	0.96	0.952
1.111 µM	0.952	0.994	0.845	0.8914	0.891
3.333 µM	0.9	0.84	0.726	0.768	0.771
10 µM	0.777	0.619	0.551	0.564	0.623

CC(C)NC[C@@H](C(=O)N1CCN(c2ncnc3c2[C@H](C)C[C@H]3O)CC1)c1ccc(Cl)cc1 [Ipatasertib]
relative viability
Conditions	KHOS-240S	RD	RD-ES	SK-ES-1	SW982
0.00017 µM	1.06	1.03	0.9447	1.03	0.991
0.00051 µM	1.04	1.06	0.932	1.04	0.985
0.00152 µM	1.05	1.06	0.954	1.01	1.02
0.00457 µM	1.05	1.05	0.9221	1	1
0.01372 µM	1.06	1.07	0.925	1.02	0.945
0.04115 µM	0.991	1.05	0.869	0.947	0.949
0.1235 µM	1.01	0.991	0.844	0.944	0.962
0.3704 µM	0.938	0.916	0.7432	0.79	0.881
1.111 µM	0.87	0.799	0.601	0.683	0.824
3.333 µM	0.823	0.681	0.52	0.529	0.745
10 µM	0.703	0.623	0.4354	0.473	0.652

— the supplement of paper PMC10883282
